Assay results as given in patent publication US7723329B2, “Substituted-3-sulfonylindazole derivatives as 5-hydroxytryptamine-6 ligands” (Wyeth LLC, priority 2005, dated 2010).
Where a name gives a salt, the structure may show the parent alone.

target: T1, human cloned 5-HT6 receptors (Homo sapiens, UniProt P50406); experiment: 5-HT6 binding affinity, [3H]-LSD displacement; settings: membranes of Hela cells expressing human cloned 5-HT6 receptors; [3H]-LSD 3.0 nM; 120 minutes at room temperature
T1 construct: expressed in transfected cells; host or cells: HeLa cells
T1 sequence (P50406 whole entry): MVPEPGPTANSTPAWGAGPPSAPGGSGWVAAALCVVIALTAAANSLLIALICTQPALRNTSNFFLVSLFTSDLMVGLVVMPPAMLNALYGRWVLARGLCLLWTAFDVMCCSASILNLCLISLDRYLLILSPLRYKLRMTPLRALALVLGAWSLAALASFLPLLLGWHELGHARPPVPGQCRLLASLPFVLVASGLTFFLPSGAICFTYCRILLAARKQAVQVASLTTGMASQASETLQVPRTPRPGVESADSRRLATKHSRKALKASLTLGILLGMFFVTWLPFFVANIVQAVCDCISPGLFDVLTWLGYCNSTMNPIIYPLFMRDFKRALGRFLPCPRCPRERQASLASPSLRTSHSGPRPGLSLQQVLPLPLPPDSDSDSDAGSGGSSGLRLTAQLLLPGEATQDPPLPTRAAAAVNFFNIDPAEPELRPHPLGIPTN
Method: The affinity of test compounds for the serotonin 5-HT6 receptor was evaluated in the following manner. Cultured Hela cells expressing human cloned 5-HT6 receptors were harvested and centrifuged at low speed (1,000×g) for 10.0 minutes to remove the culture media. The harvested cells were suspended in half volume of fresh physiological phosphate buffered saline solution and recentrifuged at the same speed. This operation was repeated. The collected cells were then homogenized in ten volumes of 50 mM Tris.HCl (pH 7.4) and 0.5 mM EDTA. The homogenate was centrifuged at 40,000×g for 30.0 min and the precipitate was collected. The obtained pellet was resuspended in 10 volumes of Tris.HCl buffer and recentrifuged at the same speed. The final pellet was suspended in a small volume of Tris.HCl buffer and the tissue protein content was determined in aliquots of 10-25 μl volumes. […] The volume of the suspended cell membranes was adjusted to give a tissue protein concentration of 1.0 mg/ml of suspension. The prepared membrane suspension (10 times concentrated) was aliquoted in 1.0 ml volumes and stored at −70° C. until used in subsequent binding experiments.
The bound complex caught on the filter disk was allowed to air dry and the radioactivity is measured in a Packard TopCount® equipped with six photomultiplier detectors, after the addition of 40.0 μl Microscint®-20 scintillant to each shallow well. The unifilter plate was heat-sealed and counted in a PackardTopCount® with a tritium efficiency of 31.0%.
Specific binding to the 5-HT6 receptor was defined as the total radioactivity bound less the amount bound in the presence of 10.0 μM unlabeled methiothepin. Binding in the presence of varying concentrations of test compound was expressed as a percentage of specific binding in the absence of test compound. The results were plotted as log % bound versus log concentration of test compound. […] A linear regression line of data points was plotted, from which the IC50 value is determined and the Ki value is determined based upon the following equation: Ki=IC50/(1+L/KD) where L was the concentration of the radioactive ligand used and KD is the dissociation constant of the ligand for the receptor, both expressed in nM.

SMILES | Ki
CN(C)CCOc1cccc2c(S(=O)(=O)c3cccc4ccccc34)nn(C)c12 [Example 96] | > 45 nM
CCCCNCCOc1cccc2c(S(=O)(=O)c3cccc4ccccc34)nn(C)c12 [Example 98] | 26 to 35 nM
CCNCCOc1cccc2c(S(=O)(=O)c3ccccc3)nn(C)c12 [Example 102] | 26 to 35 nM
CCN(CC)CCOc1cccc2c(S(=O)(=O)c3ccccc3)nn(C)c12 [Example 103] | > 45 nM
Cn1nc(S(=O)(=O)c2ccccc2)c2cccc(OCCN3CCCC3)c21 [Example 104] | 26 to 35 nM
Cn1nc(S(=O)(=O)c2ccccc2)c2cccc(OCCN3CCCCC3)c21 [Example 105] | > 45 nM
NCCOc1cc(F)cc2c(S(=O)(=O)c3cccc4ccccc34)nn(Cc3cccc(Cl)c3)c12 [Example 106, (2-{[1-(3-Chlorobenzyl)-5-fluoro-3-(1-naphthylsulfonyl)-1H-indazol-7-yl]oxy}ethyl)amine] | > 45 nM
CNCCOc1cc(F)cc2c(S(=O)(=O)c3cccc4ccccc34)nn(Cc3cccc(Cl)c3)c12 [Example 107, (2-{[1-(3-chlorobenzyl)-5-fluoro-3-(1-naphthylsulfonyl)-1H-indazol-7-yl]oxy}ethyl)methylamine Hydrochloride] | > 45 nM
CCNCCOc1cc(F)cc2c(S(=O)(=O)c3cccc4ccccc34)nn(Cc3cccc(Cl)c3)c12 [Example 108] | > 45 nM
CCN(CC)CCOc1cc(F)cc2c(S(=O)(=O)c3cccc4ccccc34)nn(Cc3cccc(Cl)c3)c12 [Example 110] | > 45 nM
O=S(=O)(c1cccc2ccccc12)c1nn(Cc2cccc(Cl)c2)c2c(OCCN3CCCCC3)cc(F)cc12 [Example 111] | > 45 nM
O=S(=O)(c1cccc2ccccc12)c1nn(Cc2cccc(Cl)c2)c2c(OCCN3CCCC3)cc(F)cc12 [Example 112] | > 45 nM
CNCCOc1cc(OC)cc2c(S(=O)(=O)c3cccc4ccccc34)nn(Cc3cccc(Cl)c3)c12 [Example 119] | > 45 nM
CCNCCOc1cc(OC)cc2c(S(=O)(=O)c3cccc4ccccc34)nn(Cc3cccc(Cl)c3)c12 [Example 120] | > 45 nM
COc1cc(OCCN(C)C)c2c(c1)c(S(=O)(=O)c1cccc3ccccc13)nn2Cc1cccc(Cl)c1 [Example 121] | > 45 nM
COc1cc(OCCN2CCCC2)c2c(c1)c(S(=O)(=O)c1cccc3ccccc13)nn2Cc1cccc(Cl)c1 [Example 123] | > 45 nM

SMILES | Ki
CNCCCOc1cccc2c(S(=O)(=O)c3cccc4ccccc34)nn(Cc3cccc(Cl)c3)c12 [Example 128] | > 45 nM
CCNCCCOc1cccc2c(S(=O)(=O)c3cccc4ccccc34)nn(Cc3cccc(Cl)c3)c12 [Example 129] | > 45 nM
CN(C)CCCOc1cccc2c(S(=O)(=O)c3cccc4ccccc34)nn(Cc3cccc(Cl)c3)c12 [Example 130] | > 45 nM
O=S(=O)(c1cccc2ccccc12)c1nn(Cc2cccc(Cl)c2)c2c(OCCCN3CCCCC3)cccc12 [Example 132] | 26 to 35 nM
CCNCCCOc1cccc2c(S(=O)(=O)c3cccc4ccccc34)n[nH]c12 [Example 135] | 36 to 45 nM
CN(C)CCCOc1cccc2c(S(=O)(=O)c3cccc4ccccc34)n[nH]c12 [Example 136] | 36 to 45 nM
CCN(CC)CCCOc1cccc2c(S(=O)(=O)c3cccc4ccccc34)n[nH]c12 [Example 137] | 26 to 35 nM
O=S(=O)(c1cccc2ccccc12)c1n[nH]c2c(OCCCN3CCCCC3)cccc12 [Example 138] | 36 to 45 nM
NCCOc1cccc2c(S(=O)(=O)c3ccccc3)n[nH]c12 [Example 139] | 0.01 to 10 nM
NCCOc1cc(F)cc2c(S(=O)(=O)c3ccccc3)n[nH]c12 [Example 140] | 0.01 to 10 nM
NCCOc1cccc2[nH]nc(S(=O)(=O)c3cccc4ccccc34)c12 [Example 141] | 11 to 25 nM
CN(C)CCOc1ccc2c(S(=O)(=O)c3cccc4ccccc34)n[nH]c2c1 [Example 148] | > 45 nM
O=S(=O)(c1cccc2ccccc12)c1n[nH]c2cc(OCCN3CCCCC3)ccc12 [Example 149] | > 45 nM
O=S(=O)(c1cccc2ccccc12)c1n[nH]c2cc(OCCN3CCCC3)ccc12 [Example 150] | > 45 nM
O=C(NCCN1CCCCC1)c1ccc2[nH]nc(S(=O)(=O)c3cccc4ccccc34)c2c1 [Example 152, 3-(1-Naphtylsulfonyl)-N-(2-piperidin-1-ylethyl)-1H-indazole-5-carboxamide] | > 45 nM

Continued, values first:

Ki | SMILES
0.01 to 10 nM | CCN(CC)CCOc1cccc2c(S(=O)(=O)c3cccc4ccccc34)nn(C)c12 [Example 97]
0.01 to 10 nM | Cn1nc(S(=O)(=O)c2cccc3ccccc23)c2cccc(OCCN3CCCCC3)c21 [Example 99]
11 to 25 nM | Cn1nc(S(=O)(=O)c2cccc3ccccc23)c2cccc(OCCN3CCCC3)c21 [Example 100]
11 to 25 nM | CNCCOc1cccc2c(S(=O)(=O)c3ccccc3)nn(C)c12 [Example 101]
11 to 25 nM | CN(C)CCOc1cc(F)cc2c(S(=O)(=O)c3cccc4ccccc34)nn(Cc3cccc(Cl)c3)c12 [Example 109]
0.01 to 10 nM | CNCCOc1cc(F)cc2c(S(=O)(=O)c3cccc4ccccc34)n[nH]c12 [Example 113]
0.01 to 10 nM | CCNCCOc1cc(F)cc2c(S(=O)(=O)c3cccc4ccccc34)n[nH]c12 [Example 114]
11 to 25 nM | CN(C)CCOc1cc(F)cc2c(S(=O)(=O)c3cccc4ccccc34)n[nH]c12 [Example 115]
11 to 25 nM | CCN(CC)CCOc1cc(F)cc2c(S(=O)(=O)c3cccc4ccccc34)n[nH]c12 [Example 116]
0.01 to 10 nM | O=S(=O)(c1cccc2ccccc12)c1n[nH]c2c(OCCN3CCCCC3)cc(F)cc12 [Example 117]
0.01 to 10 nM | O=S(=O)(c1cccc2ccccc12)c1n[nH]c2c(OCCN3CCCC3)cc(F)cc12 [Example 118]
0.01 to 10 nM | COc1cc(OCCN2CCCCC2)c2c(c1)c(S(=O)(=O)c1cccc3ccccc13)nn2Cc1cccc(Cl)c1 [Example 122]
11 to 25 nM | CNCCOc1cc(OC)cc2c(S(=O)(=O)c3cccc4ccccc34)n[nH]c12 [Example 124]
11 to 25 nM | COc1cc(OCCN(C)C)c2[nH]nc(S(=O)(=O)c3cccc4ccccc34)c2c1 [Example 125]
0.01 to 10 nM | COc1cc(OCCN2CCCCC2)c2[nH]nc(S(=O)(=O)c3cccc4ccccc34)c2c1 [Example 126]
11 to 25 nM | COc1cc(OCCN2CCCC2)c2[nH]nc(S(=O)(=O)c3cccc4ccccc34)c2c1 [Example 127]
11 to 25 nM | CCN(CC)CCCOc1cccc2c(S(=O)(=O)c3cccc4ccccc34)nn(Cc3cccc(Cl)c3)c12 [Example 131]
11 to 25 nM | O=S(=O)(c1cccc2ccccc12)c1nn(Cc2cccc(Cl)c2)c2c(OCCCN3CCCC3)cccc12 [Example 133]
11 to 25 nM | CNCCCOc1cccc2c(S(=O)(=O)c3cccc4ccccc34)n[nH]c12 [Example 134]
11 to 25 nM | NCCOc1ccc2c(S(=O)(=O)c3cccc4ccccc34)n[nH]c2c1 [Example 146, 2-{[3-(1-Naphtylsulfonyl)-1H-indazol-6-yl]oxy}ethanamine]
11 to 25 nM | CNCCOc1ccc2c(S(=O)(=O)c3cccc4ccccc34)n[nH]c2c1 [Example 147, N-Methyl-2-{[3-(1-naphthylsulfonyl)-1H-indazol-6-yl]oxy}ethanamine Hydrochloride]
0.01 to 10 nM | CN(C)CCNC(=O)c1ccc2[nH]nc(S(=O)(=O)c3cccc4ccccc34)c2c1 [Example 151, N-[2-(Dimethylamino)ethyl]-3-(1-naphthylsulfonyl)-1H-indazole-5-carboxamide]
11 to 25 nM | CN(C)CCN(C)Cc1ccc2[nH]nc(S(=O)(=O)c3cccc4ccccc34)c2c1 [Example 153, N,N, N′-Trimethyl-N′-{[3-(1-naphthylsulfonyl)-1H-indazol-5-yl]methyl}ethane-1,2-diamine]
11 to 25 nM | O=S(=O)(c1cccc2ccccc12)c1n[nH]c2ccc(CN[C@H]3CCNC3)cc12 [Example 154, (3S)—N-{([3-(1-Naphthylsulfonyl)-1H-indazol-5-yl]methyl}pyrrolidin-3-amine Hydrochloride]
11 to 25 nM | NCCNCc1ccc2[nH]nc(S(=O)(=O)c3cccc4ccccc34)c2c1 [Example 155, N{[3-(1-Naphthylsulfonyl)-1H-indazol-5yl]methyl}ethane-1.2-diamine]
0.01 to 10 nM | CN(C)CCOCc1ccc2[nH]nc(S(=O)(=O)c3cccc4ccccc34)c2c1 [Example 156, N,N-Dimethyl-2-{[3-(1-naphthylsulfonyl)-1H-indazol-5-yl]methoxy}ethanamine]
0.01 to 10 nM | NCCNc1ccc2[nH]nc(S(=O)(=O)c3cccc4ccccc34)c2c1 [Example 157, N1-[3-(Naphthalene-1-sulfonyl)-1H-indazol-5-yl]-ethane-1,2-diamine dihydrochloride]
